# Biological target: T1, HGFR (Homo sapiens, UniProt P08581)
# T1 construct: endogenous in cells; host or cells: MKN-45 human gastric cancer cells
# Assay: Inhibitory activity against the HGFR autophosphorylation using ELISA (MKN-45 cells)
# Type: cell-based
# Details: 1 hr with test substance
# Protocol: Human gastric cancer cells (MKN-45) were suspended in a 1% FBS-containing RPMI1640 medium (purchased from Sigma). The cell suspension (1×10^5 cells/ml) was put in a 96-well plate for cell culture (purchased from NUNC, Production No. 167008) at 0.1 ml/well, and then cultured in a 5% CO2 incubator (37° C.) overnight. After the culture, from each well was removed the supernatant, followed by adding 0.05 ml of a 1% FBS-containing RPMI1640 medium. Then, the well was supplied with 0.05 ml of the test substance dissolved in dimethyl sulfoxide (diluted with a 1% FBS-containing RPMI1640 medium), followed by culturing in a 5% CO2 incubator (37° C.) for 1 hr. From each well was removed the supernatant, and each well was washed with 150 μl of PBS, followed by adding 100 μl of a lysis buffer (50 mM Hepes (pH 7.4), 150 mM NaCl, 10% (v/v) glycerol, 1% Triton X-100, 1.5 mM MgCl2, 1 mM EDTA (pH 8.0), 100 mM NaF, 1 mM PMSF, 10 μg/ml Aprotinin, 50 μg/ml Leupeptin, 1 μg/ml Pepstatin A and 1 mM Na3VO4). The plate was shaken at 4° C. for 1 hr to prepare the cell extract.
# To a 96-well plate for ELISA (purchased from COSTAR, Production No. 3369) was added 50 μl of 60 mM bicarbonate buffer (pH 9.6) containing 50 μg/ml of an anti-phosphotyrosine antibody (PY20, purchased from Transduction Laboratory, Production No. P-11120). The plate was incubated at 4° C. overnight.
# Each well of the plate prepared in 2. was washed three times with 200 μl of PBS, and supplied with 150 μl of 3% BSA/PBS, followed by incubating at room temperature for 2 hrs. Each well was washed three times with 200 μl of PBS, and supplied with 50 μl of the above cell extract, followed by incubating at 4° C. overnight. After the incubation, each well was washed three times with 250 μl of a washing solution (0.1% BSA, 20 mM Tris-HCl (pH 7.6), 137 mM NaCl, and 0.05% Tween-20), and supplied with 70 μl of anti-HGFR antibody (h-Met(C-12), purchased from Santa Cruz, Production No. sc-10) 2,000-fold diluted with a reaction solution (1% BSA, 20 mM Tris-HCl (pH 7.6), 137 mM NaCl and 0.05% Tween-20), followed by incubating at room temperature for 1 hr. The well was washed three times with 250 μl of the washing solution, and supplied with 70 μl of peroxidase-labelled anti-rabbit IgG antibody (purchased from Cell Signaling, Production No. 7074) 2,000-fold diluted with the reaction solution, followed by incubating at room temperature for 1 hr. Each well was washed three times with 250 μl of the washing solution, and supplied with 70 μl of TMB Membrane Peroxidase Substrate (purchased from Funakoshi, Production No. 50-5077-03), followed by incubating at room temperature for 10 min. Each well was supplied with 70 μl of 1 M phosphoric acid, and using the Plate Reader MTP-500 (Corona Electric), the absorbance of the well was instantly determined at a measurement wavelength of 450 nm. While defining the absorbance of a well supplied with the cell extract having no test substance as 100% HGFR autophosphorylation activity, and the absorbance of a well supplied with 50 μl of the lysis buffer as 0% HGFR autophosphorylation activity, the HGFR autophosphorylation activity (%) was calculated for each well.
# T1 sequence (P08581 25-1390): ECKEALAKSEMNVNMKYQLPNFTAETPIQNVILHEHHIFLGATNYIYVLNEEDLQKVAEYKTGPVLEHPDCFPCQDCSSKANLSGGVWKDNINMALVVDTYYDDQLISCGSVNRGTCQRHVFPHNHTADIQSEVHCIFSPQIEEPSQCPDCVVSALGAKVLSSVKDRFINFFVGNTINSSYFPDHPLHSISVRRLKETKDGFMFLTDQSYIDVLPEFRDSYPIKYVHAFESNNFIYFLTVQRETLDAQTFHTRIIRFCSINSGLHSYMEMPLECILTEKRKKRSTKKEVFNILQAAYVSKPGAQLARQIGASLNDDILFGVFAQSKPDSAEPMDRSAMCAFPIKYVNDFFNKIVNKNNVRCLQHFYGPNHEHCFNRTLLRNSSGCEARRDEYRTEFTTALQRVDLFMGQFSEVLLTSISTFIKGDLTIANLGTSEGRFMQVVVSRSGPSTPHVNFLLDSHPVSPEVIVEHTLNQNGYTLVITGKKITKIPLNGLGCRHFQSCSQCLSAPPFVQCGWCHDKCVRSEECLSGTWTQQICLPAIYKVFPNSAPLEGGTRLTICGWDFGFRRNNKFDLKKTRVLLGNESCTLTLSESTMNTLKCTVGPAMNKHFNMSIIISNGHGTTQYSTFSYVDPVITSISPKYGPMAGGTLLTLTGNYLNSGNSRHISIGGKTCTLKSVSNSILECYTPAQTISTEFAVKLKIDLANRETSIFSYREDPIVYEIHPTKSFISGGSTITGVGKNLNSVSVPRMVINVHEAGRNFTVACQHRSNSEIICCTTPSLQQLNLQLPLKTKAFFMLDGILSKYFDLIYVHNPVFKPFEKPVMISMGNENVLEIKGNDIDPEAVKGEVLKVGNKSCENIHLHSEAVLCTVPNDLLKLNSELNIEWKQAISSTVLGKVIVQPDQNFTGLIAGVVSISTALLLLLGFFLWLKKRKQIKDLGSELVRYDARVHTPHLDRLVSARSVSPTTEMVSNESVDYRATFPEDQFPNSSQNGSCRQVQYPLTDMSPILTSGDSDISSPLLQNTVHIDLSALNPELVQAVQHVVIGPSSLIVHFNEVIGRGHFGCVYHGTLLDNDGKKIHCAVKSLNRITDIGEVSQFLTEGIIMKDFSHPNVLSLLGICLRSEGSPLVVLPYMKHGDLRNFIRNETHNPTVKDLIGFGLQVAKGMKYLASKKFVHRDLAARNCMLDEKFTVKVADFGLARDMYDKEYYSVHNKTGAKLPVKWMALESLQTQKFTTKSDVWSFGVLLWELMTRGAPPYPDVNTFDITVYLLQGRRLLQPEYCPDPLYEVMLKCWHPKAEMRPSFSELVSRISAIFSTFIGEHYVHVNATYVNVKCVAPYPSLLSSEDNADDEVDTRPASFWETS
row,Structure (SMILES),IC50 [nM]
1,"O=C(Nc1cc(Oc2ccc(NC(=O)C3(C(=O)Nc4ccc(F)cc4)CC3)cc2F)ccn1)N1CCC(N2CCCC2)CC1 [Example 10, N-(4-Fluorophenyl)-N′-{3-fluoro-4-[(2-{[(4-pyrrolidin-1-ylpiperidin-1-yl)carbonyl]amino}pyridin-4-yl)oxy]phenyl}cyclopropane-1,1-dicarboxamide]",21
2,"O=C(Nc1cc(Oc2ccc(NC(=O)C3(C(=O)Nc4ccc(F)cc4)CC3)cc2)ccn1)N1CCC(N2CCC2)CC1 [Example 13, N-{4-[(2-{[(4-Azetidin-1-ylpiperidin-1-yl)carbonyl]amino}pyridin-4-yl)oxy]phenyl}-N′-(4-fluorophenyl)cyclopropane-1,1-dicarboxamide]",37
3,"CN1CCC(N2CCN(C(=O)Nc3cc(Oc4ccc(NC(=O)C5(C(=O)Nc6ccc(F)cc6)CC5)cc4F)ccn3)CC2)CC1 [Example 19, N-(3-Fluoro-4-{[2-({[4-(1-methylpiperidin-4-yl)piperazin-1-yl]carbonyl}amino)pyridin-4-yl]oxy}phenyl)-N′-(4-fluorophenyl)cyclopropane-1,1-dicarboxamide]",23
4,"CN1CCN(C2CCN(C(=O)Nc3cc(Oc4ccc(NC(=O)C5(C(=O)Nc6ccc(F)cc6)CC5)cc4F)ccn3)CC2)CC1 [Example 20, N-(3-Fluoro-4-{[2-({[-4-(4-methylpiperazin-1-yl)piperidin-1-yl]-carbonyl}amino)pyridin-4-yl]oxy}phenyl)-N′-(4-fluorophenyl)cyclopropane-1,1-dicarboxamide]",22
5,"CN1CC(N2CCN(C(=O)Nc3cc(Oc4ccc(NC(=O)C5(C(=O)Nc6ccc(F)cc6)CC5)cc4F)ccn3)CC2)C1 [Example 22, N-(3-Fluoro-4-{[2-({[4-(1-methylazetidin-3-yl)piperazin-1-yl]carbonyl}amino)pyridin-4-yl]oxy}phenyl)-N′-(4-fluorophenyl)cyclopropane-1,1-dicarboxamide]",21

# Next, values leading:
row,IC50 [nM],Structure (SMILES)
1,14,"O=C(Nc1cc(Oc2ccc(NC(=O)C3(C(=O)Nc4ccc(F)cc4)CC3)c(F)c2)ccn1)N1CCC(N2CCCC2)CC1 [Example 4, N-(4-Fluorophenyl)-N′-{2-fluoro-4-[(2-{[(4-pyrrolidin-1-ylpiperidin-1-yl)carbonyl]amino}pyridin-4-yl)oxy]phenyl}cyclopropane-1,1-dicarboxamide]"
2,18,"CN1CCC(N2CCN(C(=O)Nc3cc(Oc4ccc(NC(=O)C5(C(=O)Nc6ccc(F)cc6)CC5)c(F)c4)ccn3)CC2)CC1 [Example 16, N-(2-Fluoro-4-{[2-({[4-(1-methylpiperidin-4-yl)piperazin-1-yl]carbonyl}amino)pyridin-4-yl]oxy}phenyl)-N′-(4-fluorophenyl)cyclopropane-1,1-dicarboxamide]"
3,39,"CN(C)C1CCN(C(=O)Nc2cc(Oc3ccc(NC(=O)C4(C(=O)Nc5ccc(F)cc5)CC4)c(F)c3)ccn2)CC1 [Example 18, N-(4-{[2-({[4-(Dimethylamino)piperidin-1-yl]carbonyl}amino)pyridin-4-yl]oxy}-2-fluorophenyl)-N′-(4-fluorophenyl)cyclopropane-1,1-dicarboxamide]"
4,17,"CN(C)C1CCN(C(=O)Nc2cc(Oc3ccc(NC(=O)C4(C(=O)Nc5ccc(F)cc5)CC4)cc3F)ccn2)CC1 [Example 23, N-(4-{[2-({[4-(Dimethylamino)piperidin-1-yl]carbonyl}amino)pyridin-4-yl]oxy}-3-fluorophenyl)-N′-(4-fluorophenyl)cyclopropane-1,1-dicarboxamide]"
5,27,"CN(C)[C@H]1CCN(C(=O)Nc2cc(Oc3ccc(NC(=O)C4(C(=O)Nc5ccc(F)cc5)CC4)cc3F)ccn2)C1 [Example 24, N-(4-{[2-({[(3S)-3-(Dimethylamino)pyrrolidin-1-yl]carbonyl}amino)pyridin-4-yl]oxy}-3-fluorophenyl)-N′-(4-fluorophenyl)cyclopropane-1,1-dicarboxamide]"
